Source: patent US20180214428A1, “3-(1H-INDOL-2-YL)-1H-PYRAZOLO[3,4-B]PYRIDINES AND THERAPEUTIC USES THEREOF” (Samumed, LLC, priority 2015, published 2018)

Tests used:
[1] = tested on: primary human fibroblasts derived from IPF patients (LL29 cells); test: Inhibition of the fibrotic process: αSMA staining in TGF-β1 treated LL29 fibroblasts; type: cell-based; conditions: Homo sapiens, Fibroblast; for EC50: 96 h, TGF-β1 20 ng/mL, 4 days, % αSMA positive cells
Source text: Representative compounds were screened using primary human fibroblasts (derived from IPF patients) treated with TGF-β1 to determine their ability to inhibit the fibrotic process.
Primary human fibroblasts derived from IPF patients (LL29 cells) [^1Xiaoqiu Liu, et. al., “Fibrotic Lung Fibroblasts Show Blunted Inhibition by cAMP Due to Deficient cAMP Response Element-Binding Protein Phosphorylation”, Journal of Pharmacology and Experimental Therapeutics (2005), 315(2), 678-687; ^2Watts, K. L., et. al., “RhoA signaling modulates cyclin D1 expression in human lung fibroblasts; implications for idiopathic pulmonary fibrosis”, Respiratory Research (2006), 7(1), 88] were obtained from American Type Culture Collection (ATCC) and expanded in F12 medium supplemented with 15% Fetal Bovine Serum and Penicillin/Streptomycin.
Each compound was dissolved in DMSO as a 10 mM stock and used to prepare compound source plates. Serial dilution (1:2, 11-point dose-response curves from 10 μM to […]) and compound transfer was performed using the ECHO 550 (Labcyte, Sunnyvale, Calif.) into 384-well clear bottom assay plates (Greiner Bio-One) with appropriate DMSO backfill for a final DMSO concentration of 0.1%. LL29 cells are plated at 1,500 cells/well in 80 μL/well F12 medium supplemented with 1% Fetal Bovine Serum. One hour after addition of the cells, TGF-01 (Peprotech; 20 ng/mL) was added to the plates to induce fibrosis (ref. 1 and 2 above). Wells treated with TGF-β1 and containing DMSO were used as controls. Cells were incubated at 37° C. and 5% CO2 for 4 days. Following incubation for 4 days, SYTOX green nucleic acid stain (Life Technologies [Thermo Fisher Scientific]) was added to the wells at a final concentration of 1 μM and incubated at room temperature for 30 min. Cells were then fixed using 4% formaldehyde (Electron Microscopy Sciences), washed 3 times with PBS followed by blocking and permeabilization using 3% Bovine Serum Albumin (BSA; Sigma) and 0.3% Triton X-100 (Sigma) in PBS. Cells were then stained with antibody specific to α-smooth muscle actin (aSMA; Abcam) (ref. 1 and 2 above) in 3% Bovine Serum Albumin (BSA; Sigma) and 0.3% Triton X-100 (Sigma) in PBS, and incubated overnight at 4° C. Cells were then washed 3 times with PBS, followed by incubation with Alexa Flor-647 conjugated secondary antibody (Life Technologies [Thermo Fisher Scientific]) and DAPI at room temperature for 1 hour. Cells were then washed 3 times with PBS and plates were sealed for imaging. αSMA staining was imaged by excitation at 630 nm and emission at 665 nm and quantified using the Compartmental Analysis program on the CellInsight CX5 (Thermo Scientific). Dead or apoptotic cells were excluded from analysis based on positive SYTOX green staining. % of total cells positive for aSMA were counted in each well and normalized to the average of 11 wells treated with TGF-01 on the same plate using Dotmatics' Studies Software. The normalized averages (fold change over untreated) of 3 replicate wells for each compound concentration were used to create dose-responses curves and EC50 values were calculated using non-linear regression curve fit in the Dotmatics' Studies Software. For EC50 of >10 μM, the percent inhibition at 10 μM is provided.

SW480 colon cancer cells = test: Cell viability assay (CellTiter-Blue) in SW480 colon cancer cells; type: cell-based, human; conditions: Homo sapiens; for EC50: 96 h, four days, CellTiter-Blue; for inhibition at 10 µM: given for EC50 of >10 μM, read-out: percent inhibition at 10 μM
Method: Representative compounds were screened using the following assay procedure to assess the effect on cell viability as described below.
Each compound was dissolved in DMSO as a 10 mM stock and used to prepare compound source plates. Serial dilution (1:3, 8-point dose-response curves from 10 μM to 0.0045 μM) and compound transfer was performed using the ECHO 550 (Labcyte, Sunnyvale, Calif.) into 96-well clear bottom, black-walled plates (Corning-Costar).
Approximately 2×10^3 SW480 colon cancer cells were seeded into each well and allowed to incubate in the presence or absence of compound for four days at 37° C./5% CO2. Eight replicates of DMSO-treated cells served as controls and cells treated with compound were performed in duplicate.
After incubation, 20 μL of CellTiter-Blue (Promega) was added to each well allowed to incubate for approximately 3 hours. This reagent was a buffered solution which contains resazurin, metabolically active cells were able to reduce rezarurin (blue) into resorufin (pink) which was highly fluorescent. This measured fluorescence was used as a readout for cell viability.
After incubation, the plates were read at Ex 560 nm Em 590 nm (Cytation 3, BioTek). Dose-response curves were generated and EC50 concentration values were calculated using non-linear regression curve fit in the GraphPad Prism (San Diego, Calif.) or Dotmatics' Studies Software (Bishops Stortford, UK). For EC50 of >10 μM, the percent inhibition at 10 μM is provided.

[2] = tested on: Wnt activity (Sp5-Luc reporter gene, SW480 colon carcinoma cells); test: Screening assay for Wnt activity: Sp5-Luc reporter gene assay in SW480 cells; type: cell-based, human; conditions: Homo sapiens; for EC50: overnight incubation; for inhibition at 10 µM: given for EC50 of >10 μM, read-out: percent inhibition at 10 μM
Source text: The screening assay for Wnt activity is described as follows. Reporter cell lines can be generated by stably transducing cancer cell lines (e.g., colon cancer) or primary cells (e.g., IEC-6 intestinal cells) with a lentiviral construct that includes a Wnt-responsive promoter driving expression of the firefly luciferase gene.
SW480 colon carcinoma cells were transduced with a lentiviral vector expressing luciferase with a human Sp5 promoter consisting of a sequence of eight TCF/LEF binding sites. SW480 cells stably expressing the Sp5-Luc reporter gene and a hygromycin resistance gene were selected by treatment with 150 μg/mL of hygromycin for 7 days. These stably transduced SW480 cells were expanded in cell culture and used for all further screening activities. Each compound was dissolved in DMSO as a 10 mM stock and used to prepare compound source plates. Serial dilution (1:3, 10-point dose-response curves starting from 10 μM) and compound transfer was performed using the ECHO 550 (Labcyte, Sunnyvale, Calif.) into 384-well white solid bottom assay plates (Greiner Bio-One) with appropriate DMSO backfill for a final DMSO concentration of 0.1%. For Sp5-Luc reporter gene assays, the cells were plated at 4,000 cells/well in 384-well plates with medium containing 1% fetal bovine serum and incubated overnight at 37° C. and 5% CO2. Following incubation, 20 μl of BrightGlo luminescence reagent (Promega) was added to each well of the 384-well assay plates. The plates were placed on an orbital shaker for 2 min and then luminescence was quantified using the Envision (Perkin Elmer) plate reader. Readings were normalized to DMSO only treated cells, and normalized activities were utilized for EC50 calculations using the dose-response log (inhibitor) vs. response variable slope (four parameters) nonlinear regression feature available in GraphPad Prism 5.0 (or Dotmatics). For EC50 of >10 μM, the percent inhibition at 10 μM is provided.

| SMILES | EC50 (SW480 colon cancer cells) | EC50 [2] | EC50 [1] | inhibition at 10 µM (SW480 colon cancer cells) | inhibition at 10 µM [2] | inhibition at 10 µM ([1]; at 10 μM, given for EC50 of >10 μM, TGF-β1, αSMA, read-out: percent inhibition at 10 μM) |
| --- | --- | --- | --- | --- | --- | --- |
| CCNCc1cncc(-c2cnc3[nH]nc(-c4cc5c(-c6cc(F)cc(NCCN(C)C)c6)cccc5[nH]4)c3c2)c1 [Compound 428, N^1-(3-(2-(5-(5-((Ethylamino)methyl)pyridin-3-yl)-1H-pyrazolo[3,4-b]pyridin-3-yl)-1H-indol-4-yl)-5-fluorophenyl)-N^2,N^2-dimethylethane-1,2-diamine] | 757 nM | 947 nM | 1250 nM | – | – | – |
| CN(C)c1cncc(-c2cnc3[nH]nc(-c4cc5c(N6CCCCC6)cccc5[nH]4)c3c2)c1 [Compound 151, N,N-Dimethyl-5-(3-(4-(piperidin-1-yl)-1H-indol-2-yl)-1H-pyrazolo[3,4-b]pyridin-5-yl)pyridin-3-amine] | 5260 nM | 982 nM | 1630 nM | – | – | – |
| Cc1ccncc1-c1cnc2[nH]nc(-c3cc4c(-c5ccc(F)cc5)cccc4[nH]3)c2c1 [Compound 27, 3-(4-(4-Fluorophenyl)-1H-indol-2-yl)-5-(4-methylpyridin-3-yl)-1H-pyrazolo[3,4-b]pyridine] | > 10000 nM | 3530 nM | 1610 nM | 13.9% | – | – |
| c1cncc(-c2cccc3[nH]c(-c4n[nH]c5ncc(-c6cncc(CN7CCCCC7)c6)cc45)cc23)c1 [Compound 84, 5-(5-(Piperidin-1-ylmethyl)pyridin-3-yl)-3-(4-(pyridin-3-yl)-1H-indol-2-yl)-1H-pyrazolo[3,4-b]pyridine] | 8470 nM | > 10000 nM | 5970 nM | – | 48.5% | – |
| CCCCC(=O)Nc1cncc(-c2cnc3[nH]nc(-c4cc5c(-c6ccccn6)cccc5[nH]4)c3c2)c1 [Compound 136, N-(5-(3-(4-(Pyridin-2-yl)-1H-indol-2-yl)-1H-pyrazolo[3,4-b]pyridin-5-yl)pyridin-3-yl)pentanamide] | 4710 nM | 385 nM | 2670 nM | – | – | – |
| c1ccc(CNCc2cncc(-c3cnc4[nH]nc(-c5cc6c(-c7ccncc7)cccc6[nH]5)c4c3)c2)cc1 [Compound 116, N-Benzyl-1-(5-(3-(4-(pyridin-4-yl)-1H-indol-2-yl)-1H-pyrazolo[3,4-b]pyridin-5-yl)pyridin-3-yl)methanamine] | 3590 nM | 3820 nM | 2530 nM | – | – | – |
| CS(=O)(=O)NCc1cc(F)cc(-c2cccc3[nH]c(-c4n[nH]c5ncc(-c6cncc(N)c6)cc45)cc23)c1 [Compound 453, N-(3-(2-(5-(5-Aminopyridin-3-yl)-1H-pyrazolo[3,4-b]pyridin-3-yl)-1H-indol-4-yl)-5-fluorobenzyl)methanesulfonamide] | 997 nM | 157 nM | 370 nM | – | – | – |
| CN(C)CCNc1cc(F)cc(-c2cccc3[nH]c(-c4n[nH]c5ncc(-c6cncnc6)cc45)cc23)c1 [Compound 449, N^1-(3-Fluoro-5-(2-(5-(pyrimidin-5-yl)-1H-pyrazolo[3,4-b]pyridin-3-yl)-1H-indol-4-yl)phenyl)-N^2,N^2-dimethylethane-1,2-diamine] | 1300 nM | 2600 nM | 1160 nM | – | – | – |
| CN1CCN(c2cccc3[nH]c(-c4n[nH]c5ncc(-c6cncnc6)cc45)cc23)CC1 [Compound 227, 3-(4-(4-Methylpiperazin-1-yl)-1H-indol-2-yl)-5-(pyrimidin-5-yl)-1H-pyrazolo[3,4-b]pyridine] | 8760 nM | 4310 nM | > 10000 nM | – | – | 47.8% |
| O=C(Nc1cncc(-c2cnc3[nH]nc(-c4cc5c(N6CCCCC6)cccc5[nH]4)c3c2)c1)c1ccccc1 [Compound 155, N-(5-(3-(4-(Piperidin-1-yl)-1H-indol-2-yl)-1H-pyrazolo[3,4-b]pyridin-5-yl)pyridin-3-yl)benzamide] | > 10000 nM | 3470 nM | 5170 nM | 31% | – | – |

Now from value to compound, other results behind:

| EC50 (SW480 colon cancer cells) | EC50 [2] | SMILES | EC50 [1] | inhibition at 10 µM (SW480 colon cancer cells) | inhibition at 10 µM [2] | inhibition at 10 µM ([1]; at 10 μM, given for EC50 of >10 μM, TGF-β1, αSMA, read-out: percent inhibition at 10 μM) |
| --- | --- | --- | --- | --- | --- | --- |
| 632 nM | 521 nM | CCCC(=O)Nc1cncc(-c2cnc3[nH]nc(-c4cc5ccccc5[nH]4)c3c2)c1 [Compound 243, N-(5-(3-(1H-Indol-2-yl)-1H-pyrazolo[3,4-b]pyridin-5-yl)pyridin-3-yl) butyramide] | 210 nM | – | – | – |
| > 10000 nM | 660 nM | c1cncc(-c2cnc3[nH]nc(-c4cc5ccccc5[nH]4)c3c2)c1 [Compound 231, 3-(1H-Indol-2-yl)-5-(pyridin-3-yl)-1H-pyrazolo[3,4-b]pyridine] | 8690 nM | 9.1% | – | – |
| 3780 nM | > 10000 nM | CN(C)CCOc1cncc(-c2cnc3[nH]nc(-c4cc5c(-c6cccnc6)cccc5[nH]4)c3c2)c1 [Compound 565, N,N-Dimethyl-2-((5-(3-(4-(pyridin-3-yl)-1H-indol-2-yl)-1H-pyrazolo[3,4-b]pyridin-5-yl)pyridin-3-yl)oxy)ethan-1-amine] | 1930 nM | – | 34.5% | – |
| > 10000 nM | 2740 nM | Fc1ccc(-c2cccc3[nH]c(-c4n[nH]c5ncc(-c6cncnc6)cc45)cc23)cc1 [Compound 47, 3-(4-(4-Fluorophenyl)-1H-indol-2-yl)-5-(pyrimidin-5-yl)-1H-pyrazolo[3,4-b]pyridine] | 4960 nM | 11.8% | – | – |
| > 10000 nM | > 10000 nM | c1ccc(-c2cnc3[nH]nc(-c4cc5c(-c6ccncc6)cccc5[nH]4)c3c2)nc1 [Compound 120, 5-(Pyridin-2-yl)-3-(4-(pyridin-4-yl)-1H-indol-2-yl)-1H-pyrazolo[3,4-b]pyridine] | 642 nM | 22.8% | 16.1% | – |
